Data from patent US5250194A, “N-dodecyl heterocyclic compounds useful as industrial microbicides and preservatives” (Buckman Laboratories International, Inc., priority 1992, dated 1993).
≈ marks a conversion by molar mass, not a printed value. Where two headings read alike, the source gives them in different places.

What was measured:
E. aerogenes = experiment: Pulp substrate method, minimum inhibitory concentration; format: cell-based
Excerpt: The minimum inhibitory concentrations are those in which a percentage kill of at least 80% is obtained.

[1] = Firestone and Pisano; cited from earlier work
Chlorella pyrenoidosa = experiment: Algae growth inhibition in Difco Algae Broth; format: cell-based; conditions: Auxenochlorella pyrenoidosa, 672 h
Protocol: (§1) The growth inhibiting activity of the method of the invention against the three algae Chlorella pyrenoidosa, Chlorococcum hypnosporum and Phormidium inundatum was evaluated in Difco Algae Broth, the content of which was as follows:
(§2) Forty-gram portions of the algae medium were added to 250 mL Pyrex Erlenmeyer flasks fitted with loose metal caps and then sterilized. Each of the following substances wa then added to the flasks in the order listed:
(§3) 1. Sterile algae medium as required to bring the total weight of the contents of each flask to 50 grams, after allowing for all subsequent additions specified below.
(§4) 2. A solution of the N-dodecyl heterocyclic toxicant or of a control agent to be evaluated in each test, to give the concentration desired in parts per million by weight.
(§5) 3. Chlorella pyrenoidosa, Chlorococcum hypnosporum and Phormidium inundatum in amounts sufficient to give excellent growth in the controls after 14 days. This was achieved by adding 1 milliliter of a 14 day old culture having luxuriant growth. The Chlorella pyrenoidosa culture was obtained from American Type Culture Collection No. 7516; Chlorococcum hynosporum, from the University of Texas at Austin; and Phormidium inundatum, Wisconsin No. 1093, from the University of Washington.
(§6) As a control experiment, WSCP was used as a positive control agent. WSCP is a known toxicant which kills C. pyrenoidosa at 2 ppm, C. hypnosporum at 2 ppm and P. inundatum at 10 ppm. Control experiments were also carried out where no toxicants were also employed. In the algicidal tests the growth of algae in the nutrient medium is lush green and can be seen with the naked eye. Because the minimum inhibitory concentrations of the compounds in this example are those which result in complete inhibition evaluation of the test results is not subjective.
(§7) After the inoculum of the test algae was added, the flasks were incubated at a temperature of 28° ±2° C. under fluorescent illumination of 250 foot-candle intensity (8 hours light, 16 hours darkness) for a period adequate for growth in the controls (those portions of medium which contained no toxicant). Observations of growth were made at 7-day intervals. Minimum inhibitory concentrations are those that prevented complete growth after 28 days.

Chlorococcum hypnosporum = experiment: Algae growth inhibition in Difco Algae Broth; format: cell-based; conditions: 672 h
Protocol: as §1, §2, §3, §4, §5, §6, §7

P. aeruginosa = experiment: Basal salts method, minimum inhibitory concentration; format: cell-based; conditions: basal salts solution
Protocol: The preferred compounds of the present invention were tested by the pulp substrate method and basal salts method described in U.S. Pat. No. 2,881,070 at column 5, beginning at line 12 and extending to column 6, line 53. The disclosure of U.S. Pat. No. 2,881,070 is specifically incorporated by reference herein. […] The minimum inhibitory concentrations are those in which a percentage kill of at least 80% is obtained.

Aspergillus niger = experiment: Fungal growth inhibition, minimum inhibitory concentration; format: cell-based; conditions: pH 6.0, completely prevented growth, read-out: Minimum inhibitory concentration against fungi
Protocol: The microorganism growth inhibiting activity of N-dodecyl heterocyclic compounds on the fungus Aspergillus niger was evaluated.

[2] = Barker and Hadgraft; cited from earlier work
epoxidation of aldrin = conditions: rat liver; Wilkinson et al.; cited from earlier work
Phormidium inundatum = experiment: Algae growth inhibition in Difco Algae Broth; format: cell-based; conditions: 672 h
Protocol: as §1, §2, §3, §4, §5, §6, §7

cholesterol biosynthesis = conditions: rat liver; Baggeley et al.; cited from earlier work
[3] = C. pyrenoidosa, pH 7.0, 28 days, read-out: Minimum inhibitory concentration against algae
[4] = C. hypnosporum, pH 7.0, 28 days, read-out: Minimum inhibitory concentration against algae
[5] = P. inundatum, pH 7.0, 28 days, read-out: Minimum inhibitory concentration against algae
[6] = pH 7, read-out: Minimum inhibitory concentration against algae

SMILES | MIC (Aspergillus niger) [µg/mL] | Minimum inhibitory concentration (E. aerogenes; pH 6.0, at least 80% kill) | Minimum inhibitory concentration (E. aerogenes; pH 8.0, at least 80% kill) | lysosomotropic detergent, useful as anti-cancer compounds and spermicides [1] | MIC (Chlorella pyrenoidosa; [3]) [µg/mL] | MIC (Chlorococcum hypnosporum; [4]) [µg/mL] | Minimum inhibitory concentration (P. aeruginosa; pH 6.0, at least 80% kill) | Minimum inhibitory concentration (P. aeruginosa; pH 8.0, at least 80% kill) | help the transport of anionic drugs [2] | inhibitor of epoxidation of aldrin (epoxidation of aldrin) | MIC (Phormidium inundatum; [5]) [µg/mL] | inhibitor of cholesterol biosynthesis (cholesterol biosynthesis) | MIC (Chlorella pyrenoidosa; [6]) [µg/mL] | MIC (Phormidium inundatum; [6]) [µg/mL] | MIC (Chlorococcum hypnosporum; [6]) [µg/mL]
CCCCCCCCCCCCn1ccnc1 [Compound 2, N-Dodecylimidazole] | 32 (≈ 135 µM) | 1000 | > 1000 | lysosomotropic detergents | 0.5 (≈ 2.12 µM) | 0.7 (≈ 2.96 µM) | 4 | 10 |  | inhibitor of epoxidation of aldrin of rat liver | 2 (≈ 8.46 µM) | inhibitor of cholesterol biosynthesis in rat liver |  |  | 
CCCCCCCCCCCCN1CC(C)OC(C)C1 (centres unmarked) [Compound 3, N-dodecyl-2,6-dimethylmorpholine] | 128 (≈ 451 µM) | 1000 | 1000 |  | 10 (≈ 35.3 µM) | < 1 |  |  |  |  | 1000 (≈ 3530 µM) |  |  |  | 
CCCCCCCCCCCCN1CC(CCl)OC1=O (centres unmarked) [Compound 4, N-dodecyl-5-chloromethyl-2-oxazolidinone] | > 512 | 1000 | 1000 |  | 100 (≈ 329 µM) | 100 (≈ 329 µM) |  |  |  |  | 100 (≈ 329 µM) |  |  |  | 
CCCCCCCCCCCCN1CCCCCC1 [Compound 6, N-Dodecylhexamethyleneimine] | 256 (≈ 957 µM) | > 1000 | 1000 |  |  |  |  |  |  |  |  |  | 1 (≈ 3.74 µM) | 10 (≈ 37.4 µM) | 1 (≈ 3.74 µM)
CCCCCCCCCCCCN1CCCC1 [Compound 7, N-Dodecylpyrrolidine] | 128 (≈ 535 µM) | 1000 | > 1000 |  |  |  |  |  |  |  |  |  | 1 (≈ 4.18 µM) | 1 (≈ 4.18 µM) | 1 (≈ 4.18 µM)
CCCCCCCCCCCCN1CCCCC1 [Compound 9, N-Dodecylpiperidine] | 32 (≈ 126 µM) | 1000 | 1000 |  |  |  |  |  |  |  |  |  | 1 (≈ 3.95 µM) | 10 (≈ 39.5 µM) | 1 (≈ 3.95 µM)
CCCCCCCCCCCCN1CCCCC1C (centres unmarked) [Compound 11, N-Dodecyl-2-methylpiperidine] | 1000 (≈ 3740 µM) | 100 | > 1000 |  |  |  |  |  |  |  |  |  | < 1 | 5 (≈ 18.7 µM) | < 1

More lines, main results first:

MIC (Aspergillus niger) [µg/mL] | SMILES | Minimum inhibitory concentration (E. aerogenes; pH 6.0, at least 80% kill) | Minimum inhibitory concentration (E. aerogenes; pH 8.0, at least 80% kill) | lysosomotropic detergent, useful as anti-cancer compounds and spermicides [1] | MIC (Chlorella pyrenoidosa; [3]) [µg/mL] | MIC (Chlorococcum hypnosporum; [4]) [µg/mL] | Minimum inhibitory concentration (P. aeruginosa; pH 6.0, at least 80% kill) | Minimum inhibitory concentration (P. aeruginosa; pH 8.0, at least 80% kill) | help the transport of anionic drugs [2] | inhibitor of epoxidation of aldrin (epoxidation of aldrin) | MIC (Phormidium inundatum; [5]) [µg/mL] | inhibitor of cholesterol biosynthesis (cholesterol biosynthesis) | MIC (Chlorella pyrenoidosa; [6]) [µg/mL] | MIC (Phormidium inundatum; [6]) [µg/mL] | MIC (Chlorococcum hypnosporum; [6]) [µg/mL]
> 100 | CCCCCCCCCCCCN1CCOCC1 [Compound 1, N-Dodecylmorpholine] | 25 | 25 | lysosomotropic detergents | 1 (≈ 3.91 µM) | 1 (≈ 3.91 µM) | 8 | 40 | help the transport of anionic drugs |  |  |  |  |  | 
32 (≈ 126 µM) | CCCCCCCCCCCCN1CCCC1=O [Compound 5, N-Dodecyl-2-pyrrolidinone] | 1000 | 1000 |  | 10 (≈ 39.5 µM) | 10 (≈ 39.5 µM) |  |  |  |  | 10 (≈ 39.5 µM) |  |  |  | 
256 (≈ 957 µM) | CCCCCCCCCCCCN1CCCC(C)C1 (centres unmarked) [Compound 8, N-dodecyl-3-methylpiperidine] | 1000 | > 1000 |  | 10 (≈ 37.4 µM) | 1 (≈ 3.74 µM) |  |  |  |  | 10 (≈ 37.4 µM) |  |  |  | 
1000 (≈ 3740 µM) | CCCCCCCCCCCCN1CCC(C)CC1 [Compound 10, N-Dodecyl-4-methylpiperidine] | 100 | > 1000 |  | < 1 | < 1 |  |  |  |  | < 1 |  |  |  | 
